Results: PubChem BioAssay (NCI)
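Protocol summary: plate cells (96-well), add compound at 5 concentrations, incubate 48 h, interpolate endpoints linearly. GI50 marks 50% less growth. TGI denotes the concentration required for complete inhibition of growth.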

Legend:
Experiment in all cases: inhibition of tumour cell growth, NCI panel, 48 h; in the data active means GI50 below about 0.43 µM; inactive means the rest
RPMI-8226 leukemia = tested on: RPMI-8226 leukemia
NCI-H460 lung = tested on: NCI-H460 lung
CCRF-CEM leukemia = tested on: CCRF-CEM leukemia
MALME-3M melanoma = tested on: MALME-3M melanoma
MCF7 breast = tested on: MCF7 breast
MOLT-4 leukemia = tested on: MOLT-4 leukemia
NCI/ADR-RES ovarian = tested on: NCI/ADR-RES ovarian
SK-MEL-5 melanoma = tested on: SK-MEL-5 melanoma
BT-549 breast = tested on: BT-549 breast
SNB-19 CNS = tested on: SNB-19 CNS
HCT-116 colon = tested on: HCT-116 colon
SF-539 CNS = tested on: SF-539 CNS
OVCAR-5 ovarian = tested on: OVCAR-5 ovarian
OVCAR-3 ovarian = tested on: OVCAR-3 ovarian
A498 renal = tested on: A498 renal
NCI-H522 lung = tested on: NCI-H522 lung
HOP-92 NSCLC = tested on: HOP-92 NSCLC
SK-MEL-2 melanoma = tested on: SK-MEL-2 melanoma
IGROV1 ovarian = tested on: IGROV1 ovarian
HCT-15 colon = tested on: HCT-15 colon
TK-10 renal = tested on: TK-10 renal
COLO 205 colon = tested on: COLO 205 colon
786-0 renal = tested on: 786-0 renal
PC-3 prostate = tested on: PC-3 prostate
LOX IMVI melanoma = tested on: LOX IMVI melanoma
A549 NSCLC = tested on: A549 NSCLC
EKVX NSCLC = tested on: EKVX NSCLC
SF-268 CNS = tested on: SF-268 CNS
UO-31 renal = tested on: UO-31 renal
M14 melanoma = tested on: M14 melanoma
SNB-75 CNS = tested on: SNB-75 CNS
SK-MEL-28 melanoma = tested on: SK-MEL-28 melanoma
MDA-N = tested on: MDA-N
SN12C renal = tested on: SN12C renal
SF-295 CNS = tested on: SF-295 CNS
RXF 393 renal = tested on: RXF 393 renal
U251 CNS = tested on: U251 CNS
HCC-2998 colon = tested on: HCC-2998 colon
UACC-257 melanoma = tested on: UACC-257 melanoma
MDA-MB-435 = tested on: MDA-MB-435
OVCAR-4 ovarian = tested on: OVCAR-4 ovarian
NCI-H226 lung = tested on: NCI-H226 lung
MDA-MB-231 breast = tested on: MDA-MB-231 breast
ACHN renal = tested on: ACHN renal
T-47D breast = tested on: T-47D breast
HS 578T breast = tested on: HS 578T breast
NCI-H23 lung = tested on: NCI-H23 lung
HT29 colon = tested on: HT29 colon
CAKI-1 renal = tested on: CAKI-1 renal
KM12 colon = tested on: KM12 colon
K-562 leukemia = tested on: K-562 leukemia
OVCAR-8 ovarian = tested on: OVCAR-8 ovarian
UACC-62 melanoma = tested on: UACC-62 melanoma
SW-620 colon = tested on: SW-620 colon
DU-145 prostate = tested on: DU-145 prostate
SR leukemia = tested on: SR leukemia
HOP-62 NSCLC = tested on: HOP-62 NSCLC

O=C1C=C(c2cc(Br)c(O)c(Br)c2)/C(=C/c2cc(Br)c(O)c(Br)c2)O1
43.2 µM: TGI (LOX IMVI melanoma)
23.6 µM: TGI (RXF 393 renal)
> 75 µM: TGI (NCI-H460 lung) | TGI (MALME-3M melanoma) | TGI (MCF7 breast) | TGI (NCI/ADR-RES ovarian) | TGI (SK-MEL-5 melanoma) | TGI (BT-549 breast) | TGI (SNB-19 CNS) | TGI (SF-539 CNS) | TGI (OVCAR-5 ovarian) | TGI (NCI-H522 lung) | TGI (HOP-92 NSCLC) | TGI (SK-MEL-2 melanoma) | TGI (IGROV1 ovarian) | TGI (HCT-15 colon) | TGI (TK-10 renal) | TGI (COLO 205 colon) | TGI (786-0 renal) | TGI (PC-3 prostate) | TGI (EKVX NSCLC) | TGI (SF-268 CNS) | TGI (UO-31 renal) | TGI (M14 melanoma) | TGI (SNB-75 CNS) | TGI (SK-MEL-28 melanoma) | TGI (MDA-N) | TGI (SN12C renal) | TGI (SF-295 CNS) | TGI (U251 CNS) | TGI (HCC-2998 colon) | TGI (UACC-257 melanoma) | TGI (MDA-MB-435) | TGI (OVCAR-4 ovarian) | TGI (NCI-H226 lung) | TGI (MDA-MB-231 breast) | TGI (ACHN renal) | TGI (T-47D breast) | TGI (HS 578T breast) | TGI (NCI-H23 lung) | TGI (HT29 colon) | TGI (CAKI-1 renal) | TGI (KM12 colon) | TGI (K-562 leukemia) | TGI (OVCAR-8 ovarian) | TGI (SW-620 colon) | TGI (DU-145 prostate)
66.7 µM: TGI (RPMI-8226 leukemia)
43.8 µM: TGI (HCT-116 colon)
51.9 µM: TGI (MOLT-4 leukemia)
71 µM: TGI (OVCAR-3 ovarian)
38.2 µM: TGI (UACC-62 melanoma)
73.8 µM: TGI (CCRF-CEM leukemia)
49.3 µM: TGI (A549 NSCLC)
57.2 µM: TGI (A498 renal)
inactive: GI50 (RPMI-8226 leukemia) 22.2 µM | GI50 (NCI-H460 lung) 24.1 µM | GI50 (CCRF-CEM leukemia) 7.38 µM | GI50 (MALME-3M melanoma) 41.5 µM | GI50 (MCF7 breast) 37 µM | GI50 (MOLT-4 leukemia) 18.4 µM | GI50 (NCI/ADR-RES ovarian) 40.3 µM | GI50 (SK-MEL-5 melanoma) 29 µM | GI50 (BT-549 breast) 28.6 µM | GI50 (SNB-19 CNS) 14 µM | GI50 (HCT-116 colon) 14.8 µM | GI50 (SF-539 CNS) 24 µM | GI50 (OVCAR-5 ovarian) 64.8 µM | GI50 (OVCAR-3 ovarian) 21 µM | GI50 (A498 renal) 20.1 µM | GI50 (NCI-H522 lung) 30.4 µM | GI50 (HOP-92 NSCLC) 15.4 µM | GI50 (SK-MEL-2 melanoma) 38.5 µM | GI50 (IGROV1 ovarian) 17.8 µM | GI50 (HCT-15 colon) 28.8 µM | GI50 (TK-10 renal) 35.8 µM | GI50 (COLO 205 colon) 29.8 µM | GI50 (786-0 renal) 35.8 µM | GI50 (PC-3 prostate) 25 µM | GI50 (LOX IMVI melanoma) 14.9 µM | GI50 (A549 NSCLC) 11.2 µM | GI50 (EKVX NSCLC) 54.1 µM | GI50 (SF-268 CNS) 30.5 µM | GI50 (UO-31 renal) 19.2 µM | GI50 (M14 melanoma) 17.8 µM | GI50 (SNB-75 CNS) 39 µM | GI50 (SK-MEL-28 melanoma) 34.8 µM | GI50 (MDA-N) 33 µM | GI50 (SN12C renal) 36.5 µM | GI50 (SF-295 CNS) 29.4 µM | GI50 (RXF 393 renal) 1.82 µM | GI50 (U251 CNS) 26.4 µM | GI50 (HCC-2998 colon) 56.1 µM | GI50 (UACC-257 melanoma) > 75 µM | GI50 (MDA-MB-435) 33.6 µM | GI50 (OVCAR-4 ovarian) 50.4 µM | GI50 (NCI-H226 lung) 43.6 µM | GI50 (MDA-MB-231 breast) 32 µM | GI50 (ACHN renal) 29.4 µM | GI50 (T-47D breast) > 75 µM | GI50 (HS 578T breast) 33.9 µM | GI50 (NCI-H23 lung) 35.2 µM | GI50 (HT29 colon) 39.2 µM | GI50 (CAKI-1 renal) 34.3 µM | GI50 (KM12 colon) 37.6 µM | GI50 (K-562 leukemia) 24 µM | GI50 (OVCAR-8 ovarian) 29 µM | GI50 (UACC-62 melanoma) 16.8 µM | GI50 (SW-620 colon) 29.7 µM | GI50 (DU-145 prostate) 31.7 µM

COc1ccc(-c2cc(-c3ccc(Nc4ccnc5cc(Cl)ccc45)cc3)nc(N)c2C#N)c2ccccc12
> 100 µM: TGI (RPMI-8226 leukemia) | TGI (NCI-H460 lung) | TGI (CCRF-CEM leukemia) | TGI (MALME-3M melanoma) | TGI (MCF7 breast) | TGI (MOLT-4 leukemia) | TGI (NCI/ADR-RES ovarian) | TGI (SK-MEL-5 melanoma) | TGI (BT-549 breast) | TGI (SNB-19 CNS) | TGI (HCT-116 colon) | TGI (SF-539 CNS) | TGI (OVCAR-5 ovarian) | TGI (SR leukemia) | TGI (A498 renal) | TGI (NCI-H522 lung) | TGI (SK-MEL-2 melanoma) | TGI (IGROV1 ovarian) | TGI (HCT-15 colon) | TGI (TK-10 renal) | TGI (COLO 205 colon) | TGI (786-0 renal) | TGI (PC-3 prostate) | TGI (LOX IMVI melanoma) | TGI (A549 NSCLC) | TGI (EKVX NSCLC) | TGI (SF-268 CNS) | TGI (UO-31 renal) | TGI (M14 melanoma) | TGI (SNB-75 CNS) | TGI (SK-MEL-28 melanoma) | TGI (MDA-N) | TGI (SN12C renal) | TGI (SF-295 CNS) | TGI (HOP-62 NSCLC) | TGI (RXF 393 renal) | TGI (U251 CNS) | TGI (HCC-2998 colon) | TGI (UACC-257 melanoma) | TGI (MDA-MB-435) | TGI (OVCAR-4 ovarian) | TGI (NCI-H226 lung) | TGI (MDA-MB-231 breast) | TGI (ACHN renal) | TGI (T-47D breast) | TGI (NCI-H23 lung) | TGI (HT29 colon) | TGI (CAKI-1 renal) | TGI (KM12 colon) | TGI (K-562 leukemia) | TGI (OVCAR-8 ovarian) | TGI (UACC-62 melanoma) | TGI (SW-620 colon) | TGI (DU-145 prostate)
